# Source: publication PMC11133627, “CATH-2-derived antimicrobial peptide inhibits multidrug-resistant Escherichia coli infection in chickens” (Frontiers in Cellular and Infection Microbiology, 2024)
# Ends that are not written are not given here.
# Tests used:
# E. coli (ATCC 8739) [1] = format: cell-based, Escherichia coli; conditions: ATCC 8739, 1 h
# Method: The MICs of the AMPs against E. coli (ATCC 8739) at different temperatures and physiological salt concentrations were evaluated. The thermal stability of the AMPs was assessed by incubating them at a concentration of 500 μg/mL for 1h at 0, 37, and 100°C, using untreated AMPs as a control. The salt ion stability of the AMPs was determined by incubating them at a concentration of 500 μg/mL in solutions of NaCl (150 mM), KCl (4.5 mM), MgCl2 (1 mM), and CaCl2 (2.5 mM) for 1h, using untreated samples as controls. The changes in the MICs of the AMPs were assessed following these experimental procedures.
# [2] = system: E. coli strains (ATCC 8739 and MDR clinical isolates); format: cell-based, Escherichia coli; conditions: ATCC 8739, 18 h
# Method: (§1) The minimum inhibitory concentrations (MICs) of the AMPs were determined using the microbroth dilution technique ([van Harten et al., 2021]). One hundred microliters of bacterial suspension at a concentration of 1×10^6 CFU/mL was pipetted into a 96-well plate. Then, 100 μL of AMP or gentamicin at various concentrations was added, while the bacterial suspension without AMPs and blank medium were used as controls.
# [3] = system: E. coli clinical isolate E1; test: microbe, parasite or virus in culture
# Method: as §1
# [4] = system: E. coli clinical isolate E16; test: microbe, parasite or virus in culture; format: cell-based, Escherichia coli
# Method: as §1
# [5] = system: E. coli clinical isolate E12; test: microbe, parasite or virus in culture; format: cell-based, Escherichia coli
# Method: as §1
# [6] = system: E. coli clinical isolate E18; test: microbe, parasite or virus in culture; format: cell-based, Escherichia coli
# Method: as §1
# E. coli (ATCC 8739) [7] = test: microbe, parasite or virus in culture; format: cell-based, Escherichia coli
# Method: as §1
# [8] = system: E. coli clinical isolate E14; test: microbe, parasite or virus in culture; format: cell-based, Escherichia coli
# Method: as §1
# [9] = system: E. coli clinical isolate E9; test: microbe, parasite or virus in culture; format: cell-based, Escherichia coli
# Method: as §1
# [10] = system: E. coli clinical isolate E14; test: Drug-sensitivity test (paper disc, inhibition zone); format: cell-based, Escherichia coli; set-up: key to Drug sensitivity of E. coli E14: R: resistant strains; I: intermediate strains; S: sensitive strains; conditions: for Drug sensitivity of E. coli E14: 6 mm antibiotic paper on LB agar, 1×10^6 CFU/mL, 24h 37°C, inhibition zone diameter
# Method: (§2) E. coli (ATCC 8739) and clinical isolates of E. coli (E1, E9, E12, E14, E16, and E18) were stored at the Animal Biochemical Laboratory of Shanxi Agricultural University and grown in Luria-Bertani (LB) broth as previously reported ([Zhao et al., 2021]). Circular 6 mm paper pieces were prepared with filter paper and autoclaved for sterilization. […] Then, 0.5 mL of antibiotic solution was added to 100 sterilized papers. Subsequently, the paper pieces were fully infiltrated and dried in a vacuum drying oven to produce antibiotic susceptibility papers. The E. coli strain was retrieved from the -20°C freezer and activated by incubating it on LB agar media at 37°C for 24h. Individual colonies were selected and transferred to LB liquid media. Thereafter, the E. coli suspension was obtained by shaking at 37°C and 160 r/min for 18h. The obtained suspension was centrifuged at 5000 r/min for 5min, after which the supernatant was discarded, and the bacteria were resuspended in fresh medium to a concentration of 1×10^6 CFU/mL. Two hundred microliters of the bacterial suspension mentioned above was spread evenly onto LB agar medium. Then, the antibiotic susceptibility papers were placed on the medium surface using sterile tweezers. After 24h of incubation at 37°C, the diameter of the inhibition zone was measured to determine the susceptibility of E. coli to antibiotics.
# [11] = system: 6 E. coli strains (E1, E9, E12, E14, E16, E18); format: cell-based, Escherichia coli; conditions: paper disc test
# Method: as §2
# [12] = system: E. coli clinical isolate E18; test: Drug-sensitivity test (paper disc, inhibition zone); format: cell-based, Escherichia coli; set-up: key: R: resistant strains; I: intermediate strains; S: sensitive strains; conditions: 6 mm antibiotic paper on LB agar, 1×10^6 CFU/mL, 24h 37°C, inhibition zone diameter
# Method: as §2
# E. coli (ATCC 8739) [13] = test: as above; format: cell-based, Escherichia coli; set-up: key: R: resistant strains; I: intermediate strains; S: sensitive strains; conditions: 6 mm antibiotic paper on LB agar, 1×10^6 CFU/mL, 24h 37°C, inhibition zone diameter
# Method: as §2
# [14] = system: E. coli clinical isolate E9; test: as above; format: cell-based, Escherichia coli; set-up: key: R: resistant strains; I: intermediate strains; S: sensitive strains; conditions: 6 mm antibiotic paper on LB agar, 1×10^6 CFU/mL, 24h 37°C, inhibition zone diameter
# Method: as §2
# [15] = system: E. coli clinical isolate E16; test: as above; format: cell-based, Escherichia coli; set-up: key to Drug sensitivity of E. coli E16: R: resistant strains; I: intermediate strains; S: sensitive strains; conditions: for Drug sensitivity of E. coli E16: 6 mm antibiotic paper on LB agar, 1×10^6 CFU/mL, 24h 37°C, inhibition zone diameter
# Method: as §2
# [16] = system: E. coli clinical isolate E1; format: cell-based; set-up: key: R: resistant strains; I: intermediate strains; S: sensitive strains; conditions: 6 mm antibiotic paper on LB agar, 1×10^6 CFU/mL, 24h 37°C, inhibition zone diameter
# Method: as §2
# [17] = system: E. coli clinical isolate E12; test: Drug-sensitivity test (paper disc, inhibition zone); format: cell-based, Escherichia coli; set-up: key to Drug sensitivity of E. coli E12: R: resistant strains; I: intermediate strains; S: sensitive strains; conditions: for Drug sensitivity of E. coli E12: 6 mm antibiotic paper on LB agar, 1×10^6 CFU/mL, 24h 37°C, inhibition zone diameter
# Method: as §2
# E. coli (E16) = test: Chicken infection with MDR E. coli; format: in vivo
# Method: Except for the blank control group injected with 500 μL of normal saline, the other four groups were injected with 500 μL of 3×10^9 CFU/mL E. coli (E16) into the pectoral muscles. […] Clinical symptoms and were observed and documented for the chickens in each group after infection. After 72h, the chickens in each group were euthanized and examined for internal organ damage. Paraffin sections were prepared for microscopic examination of pathological changes. Under sterile conditions, 1 g samples of heart, liver, and spleen were collected, and each sample was supplemented with 20 mL of sterile PBS. After thorough grinding, the sample was diluted to the appropriate multiple, and 100 μL of the diluent was spread onto LB agar medium. The plates were incubated for 24h, after which the colonies were counted.
# E. coli (ATCC 8739) [18] = test: Sterilization kinetics assay; format: cell-based, Escherichia coli; conditions: 8 μg/mL, 1×10^5 CFU/mL, 37°C, colony count
# Method: The sterilization kinetics assay was performed following previous methods ([Peng et al., 2022]; [Yong Fang et al., 2023]). […] At each time point, 10 μL of sample was diluted in 1 mL of PBS, and 100 μL of the dilution was plated on LB agar plates. After incubating at 37°C for 24h, the number of colonies was counted.
molecule,measurement,setting,value
RFGRFLRKIRRMRLK [C2-2],"MIC against E. coli (ATCC 8739), Salt Stability CaCl2 (2.5 mM)",E. coli (ATCC 8739) [1],4 µg/mL
same,"MIC against E. coli (ATCC 8739), Salt Stability KCl (4.5 mM)",E. coli (ATCC 8739) [1],0.5 µg/mL
same,"MIC against E. coli (ATCC 8739), Salt Stability MgCl2 (1 mM)",E. coli (ATCC 8739) [1],0.5 µg/mL
same,"MIC against E. coli (ATCC 8739), Salt Stability NaCl (150 mM)",E. coli (ATCC 8739) [1],0.5 µg/mL
same,"MIC against E. coli (ATCC 8739), Thermal Stability 0°C",E. coli (ATCC 8739) [1],8 µg/mL
same,"MIC against E. coli (ATCC 8739), Thermal Stability 37°C",E. coli (ATCC 8739) [1],8 µg/mL
same,"MIC against E. coli (ATCC 8739), Thermal Stability 100°C",E. coli (ATCC 8739) [1],8 µg/mL
same,MBC range over E. coli strains,[2],2 to 8 µg/mL
same,MIC range over E. coli strains,[2],2 to 8 µg/mL
same,MBC against E. coli E1,"[3]; 50 μL from fully inhibited wells plated on LB agar, colonies counted after 24h 37°C",8 µg/mL
same,MIC against E. coli E1,"[3]; microbroth dilution, 1×10^6 CFU/mL, 37°C 18h, turbidity",4 µg/mL
same,MIC against E. coli E16,"[4]; clinical isolate E16, 18 h",8 µg/mL
same,MBC against E. coli E16,"[4]; clinical isolate E16, 24 h",8 µg/mL
same,MIC against E. coli E12,"[5]; clinical isolate E12, 18 h",2 µg/mL
same,MBC against E. coli E12,"[5]; clinical isolate E12, 24 h",2 µg/mL
same,MIC against E. coli E18,"[6]; clinical isolate E18, 18 h",4 µg/mL
same,MBC against E. coli E18,"[6]; clinical isolate E18, 24 h",4 µg/mL
same,MIC against E. coli ATCC 8739,"E. coli (ATCC 8739) [7]; ATCC 8739, 18 h",8 µg/mL
same,MBC against E. coli ATCC 8739,"E. coli (ATCC 8739) [7]; ATCC 8739, 24 h",8 µg/mL
same,MIC against E. coli E14,"[8]; clinical isolate E14, 18 h",8 µg/mL
same,MBC against E. coli E14,"[8]; clinical isolate E14, 24 h",8 µg/mL
same,MIC against E. coli E9,"[9]; clinical isolate E9, 18 h",2 µg/mL
same,MBC against E. coli E9,"[9]; clinical isolate E9, 24 h",2 µg/mL
penicillin,Drug sensitivity of E. coli E14,[10],R
same,Resistance of the 6 clinical E. coli strains (in words),[11],resistant
same,Drug sensitivity of E. coli E18,[12],R
same,Drug sensitivity of E. coli ATCC 8739,E. coli (ATCC 8739) [13],S
same,Drug sensitivity of E. coli E9,[14],R
same,Drug sensitivity of E. coli E16,[15],R
same,Drug sensitivity of E. coli E1,[16],R
same,Drug sensitivity of E. coli E12,[17],R
CS(=O)(=O)c1ccc([C@@H](O)[C@@H](CF)NC(=O)C(Cl)Cl)cc1 [florfenicol],Drug sensitivity of E. coli E14,[10],R
same,Resistance of the 6 clinical E. coli strains (in words),[11],resistant
same,Drug sensitivity of E. coli E18,[12],R
same,Drug sensitivity of E. coli ATCC 8739,E. coli (ATCC 8739) [13],S
same,Drug sensitivity of E. coli E9,[14],R
same,Drug sensitivity of E. coli E16,[15],R
same,Drug sensitivity of E. coli E1,[16],R
same,Drug sensitivity of E. coli E12,[17],R
"CNC(C)C1CCC(N)C(OC2C(N)CC(N)C(OC3OCC(C)(O)C(NC)C3O)C2O)O1 (stereo not shown) [gentamicin, reference compound]",3-day mortality rate,"E. coli (E16); 200 μg/mL, 500 μL into pectoral muscle 4h after 1.5×10^9 CFU E16",10%
same,"Bacterial loads in the heart, liver and spleen (in words)","E. coli (E16); after 3 days of infection, vs infected untreated",significantly reduced
same,"Organ lesions of heart, liver, intestine (in words)","E. coli (E16); autopsy, vs E. coli infection group",significant reduction in organ lesions
same,Drug sensitivity of E. coli E14,[10],S
same,Drug sensitivity of E. coli E14 (in words),[10]; paper disc test,susceptible
same,Time for complete bacterial eradication,E. coli (ATCC 8739) [18],≤ 60 min
same,Drug sensitivity of E. coli E18,[12],R
same,Drug sensitivity of E. coli ATCC 8739,E. coli (ATCC 8739) [13],I
same,Drug sensitivity of E. coli E9,[14],I
same,Drug sensitivity of E. coli E16,[15],S
same,Drug sensitivity of E. coli E16 (in words),[15]; paper disc test,susceptible
same,Drug sensitivity of E. coli E1,[16],R
same,MIC,"[3]; Escherichia coli, 18 h, read-out: MIC against E. coli E1",64 µg/mL
same,MBC,"[3]; Escherichia coli, 24 h, read-out: MBC against E. coli E1",64 µg/mL
same,Drug sensitivity of E. coli E12,[17],S
same,Drug sensitivity of E. coli E12 (in words),[17]; paper disc test,susceptible
same,MBC,"[4]; Escherichia coli, 50 μL from fully inhibited wells plated on LB agar, colonies counted after 24h 37°C, read-out: MBC against E. coli E16",4 µg/mL
same,MIC,"[4]; Escherichia coli, microbroth dilution, 1×10^6 CFU/mL, 37°C 18h, turbidity, read-out: MIC against E. coli E16",4 µg/mL
same,MBC,"[5]; Escherichia coli, 50 μL from fully inhibited wells plated on LB agar, colonies counted after 24h 37°C, read-out: MBC against E. coli E12",4 µg/mL
same,MIC,"[5]; Escherichia coli, microbroth dilution, 1×10^6 CFU/mL, 37°C 18h, turbidity, read-out: MIC against E. coli E12",4 µg/mL
same,MBC,"[6]; Escherichia coli, 50 μL from fully inhibited wells plated on LB agar, colonies counted after 24h 37°C, read-out: MBC against E. coli E18",128 µg/mL
same,MIC,"[6]; Escherichia coli, microbroth dilution, 1×10^6 CFU/mL, 37°C 18h, turbidity, read-out: MIC against E. coli E18",64 µg/mL
same,MBC,"E. coli (ATCC 8739) [7]; Escherichia coli, ATCC8739, 50 μL from fully inhibited wells plated on LB agar, colonies counted after 24h 37°C, read-out: MBC against E. coli ATCC 8739",8 µg/mL
same,MIC,"E. coli (ATCC 8739) [7]; Escherichia coli, ATCC8739, microbroth dilution, 1×10^6 CFU/mL, 37°C 18h, turbidity, read-out: MIC against E. coli ATCC 8739",8 µg/mL
same,MBC,"[8]; Escherichia coli, 50 μL from fully inhibited wells plated on LB agar, colonies counted after 24h 37°C, read-out: MBC against E. coli E14",4 µg/mL
same,MIC,"[8]; Escherichia coli, microbroth dilution, 1×10^6 CFU/mL, 37°C 18h, turbidity, read-out: MIC against E. coli E14",4 µg/mL
same,MBC,"[9]; Escherichia coli, 50 μL from fully inhibited wells plated on LB agar, colonies counted after 24h 37°C, read-out: MBC against E. coli E9",8 µg/mL
same,MIC,"[9]; Escherichia coli, microbroth dilution, 1×10^6 CFU/mL, 37°C 18h, turbidity, read-out: MIC against E. coli E9",8 µg/mL
